# Assay results as given in patent EP4635969A1, “NOVEL GLUCOCORTICOID, METHOD FOR PREPARING SAME, AND USE THEREOF” (Tianjin Pharmaceutical Biotechnology Co., Ltd., priority 2022, dated 2024).
# pEC50: −log10 of the molar value. Like-named read-outs stand apart in the source and are kept apart here.
# Experiments:
# [1] = test system: dry eye syndrome model New Zealand rabbits; experiment: Dry eye syndrome experiment (benzalkonium chloride model): tear film break-up time; type: in vivo, male New Zealand White rabbits; details: for tear film break-up time: compared with the model group
# Experimental: (§1) Positive control drug: Fluorometholone Eye Drops (specification: 5 mL/5 mg; Santen Pharmaceutical (CHINA) Co., Ltd.; Lot No.: 1FM6625) was used as the positive control drug and stored at room temperature protected from light until use.
# Thirty male New Zealand White rabbits (conventional grade) were prepared. Six rabbits were randomly selected as the blank control group, and the remaining animals were administered 0.1% benzalkonium chloride to the left eye twice daily (morning and evening) , 10 µL/animal each time. On day 6 of modeling, tear secretion was measured using phenol red cotton threads to determine whether the model was successfully established. […] During the administration, all animals except the blank control group were administered 10 µL of 0.1% benzalkonium chloride to the left eye once daily to maintain dry eye symptoms..
# • Test time: D3, D7, D15; • Test animals: All animals were tested before grouping; all enrolled surviving animals were tested after administration; • Test method: 1% Fluorescein sodium was dropped onto the inner side of the rabbit's lower eyelid, 10 µL/animal. The rabbit's eyes were closed and gently massaged to evenly distribute the fluorescein sodium on the eye surface. The rabbit's eyes were then sequentially placed under a slit lamp. The tear film break-up time was observed and recorded as the time from eye opening to the appearance of the first dark spot. If no dark spot appeared, the time was calculated as 60 seconds.
# (§2) The normality and homogeneity of variance were tested by Levene's test. If there was no statistical significance (P > 0.05), one-way analysis of variance (ANOVA) was used for statistical analysis. If ANOVA was statistically significant (P ≤ 0.05), LSD test (parametric method) was used for comparative analysis. If the variance was heterogeneous (P ≤ 0.05), Kruskal-Wallis test was used. If the Kruskal-Wallis test was statistically significant (P ≤ 0.05), Dunnett's test (nonparametric method) was used for comparative analysis.
# [2] = test system: inflammatory cytokines IL-6 and IL-12; experiment: Anti-asthma pharmacodynamic experiment: inflammatory cytokines in bronchoalveolar lavage fluid (ELISA); type: in vivo, female BALB/c mice; details: compared with the model group
# [3] = test system: inflammatory bowel disease model rats; experiment: Inflammatory bowel disease experiment (TNBS model): macroscopic injury score of the colon; type: in vivo; details: compared with the model group
# Experimental: Pharmacological Example 7: Pharmacodynamic Experiment on Inflammatory Bowel Disease in Rats
# Test samples: The jet-milled compounds 23 and 34 were accurately weighed and prepared as 2 mg/mL clear solutions using anhydrous ethanol, respectively. The solutions were then diluted to 0.2 mg/mL with double-distilled water as the test samples, and stored at room temperature protected from light until use.
# Animals in Groups 2 to 5 were subjected to trinitrobenzene sulfonic acid (TNBS) modeling as follows: A 5% TNBS aqueous solution was adjusted to 20 mg/mL TNBS (50% ethanol solution) with alcohol and water. After fasting for 24 h, the rats were anesthetized using an inhalation anesthesia machine. A silicone hose was inserted approximately 8 cm into the anus, and then TNBS was injected at a dose of 50 mg/kg. After injection, the rats were placed vertically for 1 min to prevent the backflow of TNBS solution. Then, the rats were placed into their cages for observation until the animals recovered.
# Drug administration started one day before modeling, with one dose administered 1 hour before modeling and then once a day for 5 consecutive days. […] Table 14. Animal grouping and drug administration dosages
# The experiment ended on day 5 after TNBS modeling. After isoflurane anesthesia, blood was collected from the hearts, and the rats were euthanized. The abdominal cavity was rapidly opened, and the macroscopic injury scoring of the colon in rats was performed based on the adhesion, obstruction, thickening of the colonic wall, colonic congestion, and necrosis in the colon area. After clearing the colonic contents, the colonic samples were longitudinally incised. The proximal 2/3 of the colon was excised, prepared into Swiss rolls, and stored in 4% neutral buffered formalin for histopathological analysis. Tissues were trimmed, dehydrated, paraffin-embedded, and sectioned (approximately 5 µm thickness), stained with hematoxylin-eosin (HE), and observed for pathological changes. Pathologists performed blind scoring of colonic lesions.
# Quantitative indices were first subjected to Bartlett's test for homogeneity of variance. When the variance was homogeneous (P > 0.05), one-way analysis of variance (ANOVA) was used for a statistical test; if there was statistical significance (P ≤ 0.05), Dunnett's t-test (Dunnett method) was used to compare intergroup differences; if there was no statistical significance (P > 0.05), the statistical analysis was concluded. When the variance was heterogeneous (P ≤ 0.05), Kruskal-Wallis H rank-sum test (K-W method) was used for statistical analysis: if there was statistical significance (P ≤ 0.05), Mann-Whitney U test (M-W method) was further performed to compare intergroup differences; if there was no statistical significance (P > 0.05), the statistical analysis was concluded.
# [4] = test system: dry eye syndrome model New Zealand rabbits; experiment: Dry eye syndrome experiment (benzalkonium chloride model): corneal fluorescein sodium staining; type: in vivo, male New Zealand White rabbits; details: for inflammatory response on the ocular surface / ocular symptoms: compared with the model group
# Experimental: Pharmacological Example 6: Therapeutic Pharmacodynamic Experiment on Dry Eye Syndrome in New Zealand Rabbits
# as §1
# Thirty male New Zealand White rabbits (conventional grade) were prepared. Six rabbits were randomly selected as the blank control group, and the remaining animals were administered 0.1% benzalkonium chloride to the left eye twice daily (morning and evening) , 10 µL/animal each time. […] During the administration, all animals except the blank control group were administered 10 µL of 0.1% benzalkonium chloride to the left eye once daily to maintain dry eye symptoms..
# • Test time: D3, D7, D15; • Test animals: All animals were tested before grouping; all enrolled surviving animals were tested after administration; • Test method: 2 µL of 1% Fluorescein sodium was dropped into the conjunctival sac. After 5 s, the excess fluorescein was rinsed with 0.9% normal saline. The conjunctival staining was observed under a slit lamp with cobalt blue diffused light.
# as §2
# [5] = target: T1, glucocorticoid receptor (GR) (Homo sapiens, UniProt P04150); experiment: Assay for agonist activity on glucocorticoid receptor (luciferase reporter, HEK293 cells transfected with pBIND-GR plasmid); type: cell-based; details: for pEC50: read-out: GR agonist EC50
# T1 sequence (P04150 521-777): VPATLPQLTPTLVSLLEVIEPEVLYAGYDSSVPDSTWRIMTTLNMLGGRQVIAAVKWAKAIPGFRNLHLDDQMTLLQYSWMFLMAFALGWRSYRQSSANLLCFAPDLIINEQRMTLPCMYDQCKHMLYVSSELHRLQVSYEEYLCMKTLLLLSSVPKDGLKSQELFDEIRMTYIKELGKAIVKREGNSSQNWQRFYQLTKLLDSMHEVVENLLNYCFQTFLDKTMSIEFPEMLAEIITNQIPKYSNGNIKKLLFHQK
# How it was run: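 Readout is luciferase luminescence, with EC50 derived by nonlinear fitting. Compounds ran at 10 concentrations (4-fold steps, top 10 µM, duplicate wells) on pBIND-GR-transfected HEK293 cells in phenol red-free DMEM plus 5% charcoal-stripped serum; 0.1% DMSO served as blank.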
# [6] = Pharmacokinetic (PK) experiment in rats; type: in vivo, male SD rats; details: same experimental conditions
# Experimental: Pharmacological Example 11. Pharmacokinetic (PK) Experiment in Rats
# The solution was prepared before administration.
# Animals: 6 male SD rats, SPF grade (Beijing Vital River Laboratory Animal Technology Co., Ltd.).
# Animal grouping: The animals were weighed prior to administration, and the dosage was calculated based on body weight. The animals in the oral administration group were fasted overnight (10-14 hours) before administration, and food was reintroduced 4 hours post-administration. Table 23. Animal grouping and drug administration dosages for pharmacokinetic (PK) experiment in rats
# Blood collection time points: Blood was collected from the jugular vein at 2 min, 5 min, 15 min, 30 min, 1 h, 2 h, 4 h, 8 h, and 24 h after administration. Approximately 0.25 mL of blood was collected for each sample, anticoagulated with heparin sodium, and then placed on ice immediately.
# Plasma sample processing: Blood samples were placed on ice after collection and centrifuged to separate plasma within 1 hour (centrifugation conditions: 6000 rpm, 3 minutes, 2-8 °C ). Plasma samples were stored in a -80°C freezer before analysis.
# Data processing: Pharmacokinetic parameters were calculated using Phoenix WinNonlin 8.2.0 based on the plasma drug concentration data at different time points.
# IL-17 = experiment: Psoriasis experiment (imiquimod model): inflammatory cytokine in serum (ELISA); type: in vivo, mice; details: for level of IL-17 / inflammatory cytokines in psoriasis model mice: compared with the model group
# uveitis model rats = experiment: Anti-uveitis pharmacodynamic experiment (LPS model): ocular pathological score; type: in vivo, male SD rats; details: compared with the model group
# [7] = GR agonist EC50 (nM), HEK293 cells transfected with pBIND-GR, luciferase signal
# [8] = HEK293 cells transfected with pBIND-GR, luciferase signal
# [9] = D3, 1 mg/mL, 50 µL/eye, 3 times a day for 14 days
# [10] = D7, 1 mg/mL, 50 µL/eye, 3 times a day for 14 days
# [11] = D15, 1 mg/mL, 50 µL/eye, 3 times a day for 14 days
SMILES,tear film break-up time [1],Effects on inflammatory cytokines in bronchoalveolar lavage fluid of mice [2],inflammatory response on the intestinal surface / intestinal symptoms [3],inflammatory response on the ocular surface / ocular symptoms [4],"EC50 [5, 7] [nM]","EC50 ([5]; Nuclear receptor enzyme activity (nM) GR, EC50 of agonist activity, HEK293 reporter cells) [nM]","pharmacokinetic properties (plasma clearance rate, systemic exposure) [6]",level of IL-17 / inflammatory cytokines in psoriasis model mice (IL-17),ocular abnormalities / ocular pathological score (uveitis model rats),"EC50 ([5]; EC50 of agonist activity, HEK293 reporter cells, read-out: Nuclear receptor enzyme activity (nM) GR) [nM]","pEC50 [5, 8]","IL-17 (IL-17; serum, day 8 of modeling, 0.2 g cream per mouse daily for 7 days) [pg/mL]","Tear film break-up time (s) D3 [1, 9] [s]","Tear film break-up time (s) D7 [1, 10] [s]","Tear film break-up time (s) D15 [1, 11] [s]","Corneal fluorescein sodium staining score D3 [4, 9]","Corneal fluorescein sodium staining score D7 [4, 10]","Corneal fluorescein sodium staining score D15 [4, 11]"
"C[C@]12C=CC(=O)C=C1CC[C@H]1[C@@H]3C[C@H]4OC(c5ccc(COC6CCOC6=O)cc5)O[C@@]4(C(=O)CO)[C@@]3(C)C[C@H](O)[C@@]12F (stereo partly drawn) [Compound 16, (6aS,6bR,7S,8aS,8bS,11aR,12aS,12bS)-6b-Fluoro-7-hydroxy-8b-(2-hydroxyacetyl)-6a,8a-dimethyl-10-(4-(((2-oxotetrahydrofuran-3-yl)oxy)methyl)phenyl)-1,2,6a,6b,7,8,8a,8b,11a,12,12a,12b-do decahydro-4H-naphtho[2',1':4,5]indeno[1,2-d][1,3]dioxol-4-one]",significantly increased the tear film break-up time,pharmacological effects similar to those of compound 23,significantly alleviated the intestinal symptoms in inflammatory bowel disease model rats,significantly alleviated the ocular symptoms in dry eye syndrome model New Zealand rabbits,0.43,0.43,pharmacokinetic properties similar to those of compound 8,significantly inhibited inflammatory cytokines in the skin of psoriasis model mice,significantly improved ocular abnormalities,–,–,–,–,–,–,–,–,–
"C[C@]12C=CC(=O)C=C1CC[C@H]1[C@@H]3C[C@H]4OC(c5ccc(CSC6CCOC6=O)cc5)O[C@@]4(C(=O)CO)[C@@]3(C)C[C@H](O)[C@@]12F (stereo partly drawn) [Compound 17, (6aS,6bR,7S,8aS,8bS,11aR,12aS,12bS)-6b-Fluoro-7-hydroxy-8b-(2-hydroxyacetyl)-6a,8a-dimethyl-10-(4-(((2-oxotetrahydrofuran-3-yl)thio)methyl)phenyl)-1,2,6a,6b,7,8,8a,8b,11a,12,12a,12b-do decahydro-4H-naphtho[2',1':4,5]indeno[1,2-d][1,3]dioxol-4-one]",significantly increased the tear film break-up time,pharmacological effects similar to those of compound 23,significantly alleviated the intestinal symptoms in inflammatory bowel disease model rats,significantly alleviated the ocular symptoms in dry eye syndrome model New Zealand rabbits,–,–,pharmacokinetic properties similar to those of compound 8,significantly decreased the level of IL-17,significantly improved ocular abnormalities,0.3,9.52,31.30 ± 14.99,–,–,–,–,–,–
"C[C@]12C=CC(=O)C=C1CC[C@H]1[C@@H]3C[C@H]4OC(c5ccc(CSC6COC(=O)C6)cc5Cl)O[C@@]4(C(=O)CO)[C@@]3(C)C[C@H](O)[C@@]12F (stereo partly drawn) [Compound 20, (6aS,6bR,7S,8aS,8bS,11aR,12aS,12bS)-10-(2-Chloro-4-(((5-oxotetrahydrofuran-3-yl)thio)methyl)phenyl)-6b-fluoro-7-hydroxy-8b-(2-hydroxyacetyl)-6a,8a-dimethyl-1,2,6a,6b,7,8,8a,8b,11a,12,12a, 12b-dodecahydro-4H-naphtho[2',1':4,5]indeno[1,2-d][1,3]dioxol-4-one]",significantly increased the tear film break-up time on day 15,pharmacological effects similar to those of compound 23,significantly alleviated the intestinal symptoms in inflammatory bowel disease model rats,significantly inhibited the inflammatory response on the ocular surface on day 15,–,–,pharmacokinetic properties similar to those of compound 8,significantly inhibited inflammatory cytokines in the skin of psoriasis model mice,significantly improved ocular abnormalities,–,9.48,–,37.00 ± 13.36,48.00 ± 9.94,48.28 ± 8.21,2.33 ± 0.82,1.5 ± 0.55,1.1 ± 0.52
"C[C@]12C=CC(=O)C=C1CC[C@H]1[C@@H]3C[C@H]4OC(c5ccc(CNC6COC(=O)C6)cc5)O[C@@]4(C(=O)CO)[C@@]3(C)C[C@H](O)[C@@]12F (stereo partly drawn) [Compound 21, (6aS,6bR,7S,8aS,8bS,11aR,12aS,12bS)-6b-Fluoro-7-hydroxy-8b-(2-hydroxyacetyl)-6a,8a-dimethyl-10-(4-(((5-oxotetrahydrofuran-3-yl)amino)methyl)phenyl)-1,2,6a,6b,7,8,8a,8b,11a,12,12a,12b-dodecahydro-4H-naphtho[2',1':4,5]indeno[1,2-d][1,3]dioxol-4-one]",significantly increased the tear film break-up time,pharmacological effects similar to those of compound 23,significantly alleviated the intestinal symptoms in inflammatory bowel disease model rats,significantly alleviated the ocular symptoms in dry eye syndrome model New Zealand rabbits,0.63,–,pharmacokinetic properties similar to those of compound 8,significantly inhibited inflammatory cytokines in the skin of psoriasis model mice,significantly improved ocular abnormalities,–,–,–,–,–,–,–,–,–
